In publication PMC4175000 (Journal of Medicinal Chemistry, 2014):

Legend:
human M5 receptors = target: T1, human M5 receptors (Homo sapiens, UniProt P08912); experiment: hM5 PAM calcium mobilization assay; format: cell-based; conditions: for improvement in hM5 PAM EC50 over the naked phenylsulfonamide: versus 6a
T1 sequence (P08912 1-532): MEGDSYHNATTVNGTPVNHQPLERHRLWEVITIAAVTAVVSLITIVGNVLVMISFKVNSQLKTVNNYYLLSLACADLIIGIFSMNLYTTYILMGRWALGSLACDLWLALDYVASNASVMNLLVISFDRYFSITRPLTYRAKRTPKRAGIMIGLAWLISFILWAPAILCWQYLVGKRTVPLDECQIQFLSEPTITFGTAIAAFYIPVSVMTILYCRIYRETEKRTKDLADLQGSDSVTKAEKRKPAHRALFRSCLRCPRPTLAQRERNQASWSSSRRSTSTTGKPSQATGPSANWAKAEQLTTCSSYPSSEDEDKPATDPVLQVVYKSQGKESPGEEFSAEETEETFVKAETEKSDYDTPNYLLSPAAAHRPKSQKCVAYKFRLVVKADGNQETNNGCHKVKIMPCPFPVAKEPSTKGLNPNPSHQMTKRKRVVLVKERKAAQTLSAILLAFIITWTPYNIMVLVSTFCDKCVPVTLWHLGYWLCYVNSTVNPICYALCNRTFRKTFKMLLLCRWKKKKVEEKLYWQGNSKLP

[1] = in vitro metabolite identification; format: in vitro ADME
hM5 receptor [2] = target: T2, hM5 receptor (Homo sapiens, UniProt P08912); experiment: ACh CRC fold shift, calcium mobilization; format: cell-based; conditions: compound at 10 μM; leftward shift in ACh potency at hM5; average ± SEM, n = 3–4
T2 sequence (P08912 1-532): T1 sequence (P08912 1-532)

hM5 receptor [3] = target: T2, hM5 receptor; experiment: [3H]NMS competition binding, hM5 CHO membranes; conditions: 0.3 nM [3H]NMS
hM1 = target: T3, hM1 (Homo sapiens, UniProt P11229); experiment: muscarinic selectivity calcium mobilization, hM1; format: cell-based; conditions: hM5 versus hM1 PAM potency
T3 sequence (P11229 1-460): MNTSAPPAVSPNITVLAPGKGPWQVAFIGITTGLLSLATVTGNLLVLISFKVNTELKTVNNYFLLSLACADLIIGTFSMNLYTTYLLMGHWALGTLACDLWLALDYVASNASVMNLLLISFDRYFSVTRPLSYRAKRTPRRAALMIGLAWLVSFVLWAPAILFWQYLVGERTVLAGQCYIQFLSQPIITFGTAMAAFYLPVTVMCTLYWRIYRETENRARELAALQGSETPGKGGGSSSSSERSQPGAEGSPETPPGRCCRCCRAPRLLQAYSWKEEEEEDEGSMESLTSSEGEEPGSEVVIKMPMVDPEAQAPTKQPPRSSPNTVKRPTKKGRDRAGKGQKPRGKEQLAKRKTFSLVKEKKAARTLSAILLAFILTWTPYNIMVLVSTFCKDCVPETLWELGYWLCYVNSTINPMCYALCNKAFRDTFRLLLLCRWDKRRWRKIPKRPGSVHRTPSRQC

[4] = hepatic microsomal intrinsic clearance, rat; format: in vitro ADME
hM4 = target: T4, hM4 (Homo sapiens, UniProt P08173); experiment: muscarinic selectivity calcium mobilization, hM4/Gqi5; format: cell-based; conditions: CHO hM4/Gqi5
T4 sequence (P08173 1-479): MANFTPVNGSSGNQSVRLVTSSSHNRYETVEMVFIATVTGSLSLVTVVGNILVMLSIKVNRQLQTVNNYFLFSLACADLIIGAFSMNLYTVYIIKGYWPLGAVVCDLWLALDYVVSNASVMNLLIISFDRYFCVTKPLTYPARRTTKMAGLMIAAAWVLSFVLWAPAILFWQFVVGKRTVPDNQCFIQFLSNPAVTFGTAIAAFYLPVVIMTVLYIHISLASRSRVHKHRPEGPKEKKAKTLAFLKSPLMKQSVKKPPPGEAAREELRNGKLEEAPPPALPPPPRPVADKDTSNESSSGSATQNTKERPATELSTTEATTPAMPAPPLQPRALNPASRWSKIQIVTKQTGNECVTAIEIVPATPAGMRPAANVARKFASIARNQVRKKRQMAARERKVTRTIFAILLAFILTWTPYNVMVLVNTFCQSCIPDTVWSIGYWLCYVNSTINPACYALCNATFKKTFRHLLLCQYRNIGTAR

hM2 = target: T5, hM2 (Homo sapiens, UniProt P08172); experiment: muscarinic selectivity calcium mobilization, hM2/Gqi5; format: cell-based; conditions: CHO hM2/Gqi5
T5 sequence (P08172 1-466): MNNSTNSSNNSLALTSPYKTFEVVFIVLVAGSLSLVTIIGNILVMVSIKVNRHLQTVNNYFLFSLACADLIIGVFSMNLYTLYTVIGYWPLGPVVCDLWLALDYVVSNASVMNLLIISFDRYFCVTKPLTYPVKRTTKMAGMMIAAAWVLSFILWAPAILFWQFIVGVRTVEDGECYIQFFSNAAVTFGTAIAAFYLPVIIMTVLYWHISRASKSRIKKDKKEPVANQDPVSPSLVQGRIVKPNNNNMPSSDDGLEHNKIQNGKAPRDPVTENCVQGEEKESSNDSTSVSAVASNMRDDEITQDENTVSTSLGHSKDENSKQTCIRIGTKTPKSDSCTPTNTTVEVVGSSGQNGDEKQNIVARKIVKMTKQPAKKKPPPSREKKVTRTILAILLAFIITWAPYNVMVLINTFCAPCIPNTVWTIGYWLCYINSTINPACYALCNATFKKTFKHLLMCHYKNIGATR

hM3 = hM3 (Homo sapiens, UniProt P20309); experiment: muscarinic selectivity calcium mobilization, hM3; format: cell-based; conditions: hM5 versus hM3 PAM potency
hM3, sequence (P20309 whole entry): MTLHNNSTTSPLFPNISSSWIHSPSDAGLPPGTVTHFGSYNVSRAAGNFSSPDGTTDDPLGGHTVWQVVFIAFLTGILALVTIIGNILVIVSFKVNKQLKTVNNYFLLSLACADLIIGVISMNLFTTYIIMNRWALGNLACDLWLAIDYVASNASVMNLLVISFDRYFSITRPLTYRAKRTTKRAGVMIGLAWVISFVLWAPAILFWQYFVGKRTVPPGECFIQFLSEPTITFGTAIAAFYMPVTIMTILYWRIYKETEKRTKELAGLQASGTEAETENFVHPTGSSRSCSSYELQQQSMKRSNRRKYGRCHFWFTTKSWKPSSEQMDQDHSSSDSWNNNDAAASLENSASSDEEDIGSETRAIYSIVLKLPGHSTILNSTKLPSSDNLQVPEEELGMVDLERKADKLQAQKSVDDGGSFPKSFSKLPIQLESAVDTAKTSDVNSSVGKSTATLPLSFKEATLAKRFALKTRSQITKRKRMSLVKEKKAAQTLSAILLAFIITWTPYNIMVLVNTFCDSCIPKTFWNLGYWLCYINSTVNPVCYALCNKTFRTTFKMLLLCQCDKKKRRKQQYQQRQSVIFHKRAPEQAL

[5] = hepatic microsomal intrinsic clearance, human; format: in vitro ADME

## CCN(Cc1ccccc1)C(=O)C1CCN(S(=O)(=O)c2ccc3cn[nH]c3c2)CC1 [6q]
Human M5 receptors
  improvement in hM5 PAM EC50 over the naked phenylsulfonamide: approximately 3 fold

## CCN(Cc1ccccc1)C(=O)C1CCN(S(=O)(=O)c2ccc3[nH]ncc3c2)CC1 [6p]
Human M5 receptors
  improvement in hM5 PAM EC50 over the naked phenylsulfonamide: approximately 3 fold

## CCN(C(=O)C1CCN(S(=O)(=O)c2ccc3[nH]ncc3c2)CC1)[C@H](C)c1ccccc1 [7g]
[1]
  primary site of metabolism: N-ethyl moiety as the primary site of metabolism
hM5 receptor [2]
  ACh fold shift: 7- to 12 fold

## CCN(Cc1ccccc1)C(=O)C1CCN(S(=O)(=O)c2ccc3occc3c2)CC1 [6o]
Human M5 receptors
  improvement in hM5 PAM EC50 over the naked phenylsulfonamide: approximately 3 fold

## CCN(Cc1ccccc1C(F)(F)F)C(=O)C1CCN(S(=O)(=O)c2ccc3[nH]ncc3c2)CC1 [8n, 1-((1H-Indazol-5-yl)sulfonyl)-N-ethyl-N-(2-(trifluoromethyl)benzyl)piperidine-4-carboxamide]
hM5 receptor [3]
  effect on [3H]NMS binding (in words): no inhibitory effect
hM1
  selectivity over hM1: greater than 10 fold
[4]; rat
  hepatic microsomal intrinsic clearance CLint: 2600 mL min^–1 kg^–1
  predicted hepatic clearance CLhep: 68 mL min^–1 kg^–1
[4]; rat, liver microsomes, pH 7.4
  CLint scaled at 1 µM: 2600 mL/min/kg
[4]; rat, well-stirred model from CLint, not corrected for fu plasma
  predicted CLhep (mL/min/kg): rat: 68 mL/min/kg
hM4
  activity at hM4 (in words): no activity
Human M5 receptors; more potent
  hM5 PAM potency relative to des-CF3 congener 6p: 8 fold
hM5 receptor [2]
  ACh fold shift: 7- to 12 fold
hM2
  activity at hM2 (in words): no activity
hM3
  selectivity over hM3: greater than 10 fold
[5]
  hepatic microsomal intrinsic clearance CLint: 540 mL min^–1 kg^–1
  predicted hepatic clearance CLhep: 20 mL min^–1 kg^–1
[5]; liver microsomes, pH 7.4
  CLint scaled at 1 µM: 540 mL/min/kg
[5]; well-stirred model from CLint, not corrected for fu plasma
  predicted CLhep (mL/min/kg): human: 20 mL/min/kg

## CCN(Cc1ccccc1C(F)(F)F)C(=O)C1CCN(S(=O)(=O)c2ccc3cn[nH]c3c2)CC1 [8j]
hM5 receptor [2]
  ACh fold shift: 7- to 12 fold

## CCN(C(=O)C1CCN(S(=O)(=O)c2ccc(OC)cc2)CC1)[C@H](C)c1ccccc1 [7b]
Human M5 receptors
  improvement in hM5 potency relative to des-methyl analog 6b: 3 fold
hM5 receptor [2]
  ACh fold shift: 7- to 12 fold

## O=C(C1CCN(S(=O)(=O)c2ccc3[nH]ncc3c2)CC1)N(Cc1ccccc1C(F)(F)F)C1CC1 [9d]
[4]; relative to the other analogs (rat CLint > 500)
  change of intrinsic microsomal clearance (in words): reduce intrinsic microsomal clearance by an order of magnitude
Human M5 receptors; PAM, calcium mobilization
  activity at hM5 (in words): complete absence of activity
